# Reference: patent publication US10759783B2, “Biaryl inhibitors of Bruton'S tyrosine kinase” (BIOGEN MA INC., priority 2013, dated 2020)
# pIC50: −log10 of the molar value.
# Tests used:
# BTK enzyme = target: T1, BTK enzyme (Homo sapiens, UniProt Q06187); assay: In vitro BTK kinase assay: BTK-POLYGAT-LS assay; format: biochemical; conditions: ATP 10 μM, read-out: IC50 (10uMATP)
# T1 construct: purchased Upstate 14-552
# Experimental: The purpose of the BTK in vitro assay is to determine compound potency against BTK through the measurement of IC50. […] For a typical assay, a 24 μL aliquot of a ATP/peptide master mix (final concentration; ATP 10 μM, polyGAT 100 nM) in kinase buffer (10 mM Tris-HCl pH 7.5, 10 mM MgCl2, 200 μM Na3PO4, 5 mM DTT, 0.01% Triton X-100, and 0.2 mg/ml casein) is added to each well. […] The assay is incubated for 30 minutes before being stopped with 28 μL of a 50 mM EDTA solution. […] The plate is covered and incubated for 45 minutes at room temperature.
# [1] = target: BTK (phospho-BTK) in human whole blood (Homo sapiens, UniProt Q06187); assay: In vitro PD assay in human whole blood (pBTK assay)
# Sequence of BTK (phospho-BTK) in human whole blood (Q06187 whole entry): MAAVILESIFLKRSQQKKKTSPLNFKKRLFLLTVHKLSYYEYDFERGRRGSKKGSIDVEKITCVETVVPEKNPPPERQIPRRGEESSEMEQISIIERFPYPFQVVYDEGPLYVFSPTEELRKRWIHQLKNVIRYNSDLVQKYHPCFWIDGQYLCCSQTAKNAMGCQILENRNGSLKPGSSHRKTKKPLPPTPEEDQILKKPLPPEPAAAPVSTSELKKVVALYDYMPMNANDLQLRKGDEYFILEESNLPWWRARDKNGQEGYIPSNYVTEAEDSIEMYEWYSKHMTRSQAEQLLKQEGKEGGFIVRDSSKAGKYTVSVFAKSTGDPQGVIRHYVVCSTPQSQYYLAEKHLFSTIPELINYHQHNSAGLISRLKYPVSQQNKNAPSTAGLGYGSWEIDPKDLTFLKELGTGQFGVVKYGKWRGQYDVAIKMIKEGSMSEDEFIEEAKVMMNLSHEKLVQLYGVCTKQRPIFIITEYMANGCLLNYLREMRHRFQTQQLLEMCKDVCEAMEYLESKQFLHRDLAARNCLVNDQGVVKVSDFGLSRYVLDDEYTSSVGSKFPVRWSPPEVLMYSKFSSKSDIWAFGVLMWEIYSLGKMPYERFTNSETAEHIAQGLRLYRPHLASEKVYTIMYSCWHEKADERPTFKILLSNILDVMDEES
# T1 sequence (Q06187 whole entry): as above
Compound,pIC50 (BTK enzyme),pIC50 [1]
"Cn1cc(Nc2nccc(-c3ccc4c(c3)CCCCC4NC(=O)c3cnn(C(C)(C)C)c3)n2)cn1 (centres unmarked) [Example I-257, 1-tert-butyl-N-[2-[2-[(1-methylpyrazol-4-yl)amino]pyrimidin-4-yl]-6,7,8,9-tetrahydro-5H-benzo[7]annulen-5-yl]pyrazole-4-carboxamide]",,> 6.30
"[2H]C([2H])([2H])C(OC1CN(C(=O)NCc2ccc(-c3ccnc(Nc4cnn(CC)c4)n3)cc2C)C1)C([2H])([2H])[2H] [Example I-262, N-[[4-[2-[(1-ethylpyrazol-4-yl)amino]pyrimidin-4-yl]-2-methyl-phenyl]methyl]-3-(1,1,1,3,3,3-d6)isopropoxy-azetidine-1-carboxamide]",,> 6.30
"Cc1cc(-c2ccnc(N)n2)ccc1C(C)NC(=O)c1cnc(C(F)(F)F)s1 (centres unmarked) [Example I-107, N-(1-(4-(2-aminopyrimidin-4-yl)-2-methylphenyl)ethyl)-2-(trifluoromethyl)thiazole-5-carboxamide]",5.00 to 6.00,
"Cc1cc(-c2ccnc(N[C@H](C)C3CCCCC3)n2)ccc1CNC(=O)c1cnc(C(C)(C)C)s1 [Example I-27, (R)-2-(tert-butyl)-N-(4-(2-((1-cyclohexylethyl)amino)pyrimidin-4-yl)-2-methylbenzyl)thiazole-5-carboxamide]",< 5.00,
"Cc1cc(-c2ccnc(Nc3ccc(N4CCN(C)CC4)cn3)n2)ccc1CNC(=O)c1cc2c(s1)CCNC2 [Example I-119, N-(2-methyl-4-(2-((5-(4-methylpiperazin-1-yl)pyridin-2-yl)amino)pyrimidin-4-yl)benzyl)-4,5,6,7-tetrahydrothieno[3,2-c]pyridine-2-carboxamide]",6.00 to 7.00,
"Cn1cc(Nc2nccc(-c3ccc(CNC(=O)c4cc5c(s4)CCOC5)c(F)c3)n2)cn1 [Example I-117, N-(2-fluoro-4-(2-((1-methyl-1H-pyrazol-4-yl)amino)pyrimidin-4-yl)benzyl)-6,7-dihydro-4H-thieno[3,2-c]pyran-2-carboxamide]",7.00 to 8.00,
"CN1CCN(c2ccc(Nc3nccc(-c4ccc5c(c4)CCCC5NC(=O)c4cnc(C(C)(C)C)s4)n3)nc2)CC1 (centres unmarked) [Example I-96, 2-(tert-butyl)-N-(6-(2-((5-(4-methylpiperazin-1-yl)pyridin-2-yl)amino)pyrimidin-4-yl)-1,2,3,4-tetrahydronaphthalen-1-yl)thiazole-5-carboxamide]",7.00 to 8.00,
"Cn1cc(Nc2nccc(-c3ccc4c(c3)COCC4NC(=O)c3cnc(C(C)(C)C)s3)n2)cn1 (centres unmarked) [Example I-98, 2-(tert-butyl)-N-(7-(2-((1-methyl-1H-pyrazol-4-yl)amino)pyrimidin-4-yl)isochroman-4-yl)thiazole-5-carboxamide]",7.00 to 8.00,
"Cc1nnc(Nc2nccc(-c3ccc(CNC(=O)c4cnc(C(C)(C)C)s4)c(C)c3)n2)s1 [Example I-59, 2-(tert-butyl)-N-(2-methyl-4-(2-((5-methyl-1,3,4-thiadiazol-2-yl)amino)pyrimidin-4-yl)benzyl)thiazole-5-carboxamide]",7.00 to 8.00,
"Cc1cc(-c2ccnc(Nc3c(C)nn(C)c3C)n2)ccc1CNC(=O)c1cnc(C(C)(C)C)s1 [Example I-53, 2-(tert-butyl)-N-(2-methyl-4-(2-((1,3,5-trimethyl-1H-pyrazol-4-yl)amino)pyrimidin-4-yl)benzyl)thiazole-5-carboxamide]",6.00 to 7.00,
"Cc1cc(-c2ccnc(N)n2)ccc1CNC(=O)c1cc2c(s1)CCS(=O)(=O)C2 [Example I-138, N-(4-(2-aminopyrimidin-4-yl)-2-methylbenzyl)-6,7-dihydro-4H-thieno[3,2-c]thiopyran-2-carboxamide 5,5-dioxide]",5.00 to 6.00,
"Cc1cc(-c2ccnc(NC(=O)C3CCN(C)CC3)c2)ccc1CNC(=O)c1cnc(C(C)(C)C)s1 [Example I-71, 2-(tert-butyl)-N-(2-methyl-4-(2-(1-methylpiperidine-4-carboxamido)pyridin-4-yl)benzyl)thiazole-5-carboxamide]",7.00 to 8.00,
"Cc1cc(-c2ccnc(Nc3cnn(C)c3)n2)ccc1CNC(=O)c1cccn1C [Example I-158, 1-Methyl-N-(2-methyl-4-(2-((1-methyl-1H-pyrazol-4-yl)amino)pyrimidin-4-yl)benzyl)-1H-pyrrole-2-carboxamide]",6.00 to 7.00,
"Cn1cc(Nc2cc(-c3ccc4c(c3)CCCC4NC(=O)c3cnc(C(C)(C)C)s3)ncn2)cn1 (centres unmarked) [Example I-92, 2-(tert-butyl)-N-(6-(6-((1-methyl-1H-pyrazol-4-yl)amino)pyrimidin-4-yl)-1,2,3,4-tetrahydronaphthalen-1-yl)thiazole-5-carboxamide]",7.00 to 8.00,
"Cc1cc(-c2ccnc(N)n2)ccc1CNC(=O)c1cnc(C2CCCO2)s1 (centres unmarked) [Example I-88, N-(4-(2-aminopyrimidin-4-yl)-2-methylbenzyl)-2-(tetrahydrofuran-2-yl)thiazole-5-carboxamide]",6.00 to 7.00,
"Cc1cc(-c2ccnc(Nc3cnn(C)c3)n2)ccc1C(C)NC(=O)c1cc2c(s1)CCOC2 (centres unmarked) [Example I-105, N-(1-(2-methyl-4-(2-((1-methyl-1H-pyrazol-4-yl)amino)pyrimidin-4-yl)phenyl)ethyl)-6,7-dihydro-4H-thieno[3,2-c]pyran-2-carboxamide]",7.00 to 8.00,
"Cc1cc(-c2ccnc(N)n2)ccc1CNC(=O)c1ccc2c(n1)CCNC2 [Example I-78, N-(4-(2-aminopyrimidin-4-yl)-2-methylbenzyl)-5,6,7,8-tetrahydro-1,6-naphthyridine-2-carboxamide]",< 5.00,
"Cn1cc(Nc2cc(-c3ccc4c(c3)CCCC4NC(=O)c3cc4c(s3)CCOC4)ncn2)cn1 (centres unmarked) [Example I-94, N-(6-(6-((1-methyl-1H-pyrazol-4-yl)amino)pyrimidin-4-yl)-1,2,3,4-tetrahydronaphthalen-1-yl)-6,7-dihydro-4H-thieno[3,2-c]pyran-2-carboxamide]",6.00 to 7.00,
"Cc1cc(-c2ccnc(NCC3CCS(=O)(=O)CC3)n2)ccc1CNC(=O)c1cnc(C(C)(C)C)s1 [Example I-31, 2-(tert-butyl)-N-(4-(2-(((1,1-dioxidotetrahydro-2H-thiopyran-4-yl)methyl)amino)pyrimidin-4-yl)-2-methylbenzyl)thiazole-5-carboxamide]",6.00 to 7.00,
"Cc1nc(-c2ccnc(Nc3cnn(C)c3)c2)ccc1CNC(=O)c1cnc(C(C)(C)C)s1 [Example I-102, 2-(tert-butyl)-N-((6-methyl-2′-((1-methyl-1H-pyrazol-4-yl)amino)-[2,4′-bipyridin]-5-yl)methyl)thiazole-5-carboxamide]",7.00 to 8.00,

# More lines, now with the values ahead:
pIC50 (BTK enzyme),pIC50 [1],Compound
> 8.00,> 6.30,"Cc1cc(-c2cc(Nc3cc4n(n3)CCN(C)C4=O)ncn2)ccc1CNC(=O)c1cnc(C(C)(C)C)s1 [Example I-278, 2-tert-butyl-N-[[2-methyl-4-[6-[(5-methyl-4-oxo-6,7-dihydropyrazolo[1,5-a]pyrazin-2-yl)amino]pyrimidin-4-yl]phenyl]methyl]thiazole-5-carboxamide]"
> 8.00,> 6.30,"Cc1cc(-c2ccnc(Nc3cnn(C)c3)n2)ccc1CNC(=O)c1nc2c(s1)CCC2 [Example I-10, N-(2-methyl-4-(2-((1-methyl-1H-pyrazol-4-yl)amino)pyrimidin-4-yl)benzyl)-5,6-dihydro-4H-cyclopenta[d]thiazole-2-carboxamide]"
> 8.00,> 6.30,"Cc1cc(-c2cc(Nc3cc4n(n3)CCCN(CCO)C4)ncn2)ccc1CNC(=O)N1CC(OC(C)C)C1 [Example I-274, N-[[4-[6-[[5-(2-hydroxyethyl)-4,6,7,8-tetrahydropyrazolo[1,5-a][1,4]diazepin-2-yl]amino]pyrimidin-4-yl]-2-methyl-phenyl]methyl]-3-isopropoxy-azetidine-1-carboxamide]"
7.00 to 8.00,,"CC(C)(C)c1ncc(C(=O)NC2CCCc3cc(-c4ccnc(N)n4)ccc32)s1 (centres unmarked) [Example I-136, N-(6-(2-aminopyrimidin-4-yl)-1,2,3,4-tetrahydronaphthalen-1-yl)-2-(tert-butyl)thiazole-5-carboxamide]"
7.00 to 8.00,,"CC(C)(C)c1ncc(C(=O)NC2CCCc3cc(-c4cc(Nc5cn[nH]c5)ncn4)ccc32)s1 (centres unmarked) [Example I-93, N-(6-(6-((1H-pyrazol-4-yl)amino)pyrimidin-4-yl)-1,2,3,4-tetrahydronaphthalen-1-yl)-2-(tert-butyl)thiazole-5-carboxamide]"
7.00 to 8.00,,"Cc1cc(-c2ccnc(Nc3cnn(C)c3)n2)ccc1CNC(=O)c1cnn(C)c1 [Example I-157, 1-Methyl-N-(2-methyl-4-(2-((1-methyl-1H-pyrazol-4-yl)amino)pyrimidin-4-yl)benzyl)-1H-pyrazole-4-carboxamide]"
> 8.00,,"Cc1cc(-c2ccnc(Nc3cnn(C)c3)n2)ccc1CNC(=O)c1cnn(C(C)(C)C)c1 [Example I-154, 1-(tert-butyl)-N-(2-methyl-4-(2-((1-methyl-1H-pyrazol-4-yl)amino)pyrimidin-4-yl)benzyl)-1H-pyrazole-4-carboxamide]"
> 8.00,,"Cc1cc(-c2ccnc(Nc3cnn(C)c3)n2)ccc1CNC(=O)c1cc(C(C)(C)C)on1 [Example I-153, 5-(tert-butyl)-N-(2-methyl-4-(2-((1-methyl-1H-pyrazol-4-yl)amino)pyrimidin-4-yl)benzyl)isoxazole-3-carboxamide]"
> 8.00,,"Cc1cc(-c2cc(Nc3cc4n(n3)CCCN(C)C4)ncn2)ccc1CNC(=O)c1cnc(C(C)(C)C)s1 [Example I-147, 2-(tert-butyl)-N-(2-methyl-4-(6-((5-methyl-5,6,7,8-tetrahydro-4H-pyrazolo[1,5-a][1,4]diazepin-2-yl)amino)pyrimidin-4-yl)benzyl)thiazole-5-carboxamide]"
